Measurements from patent US4910213A, “Antimycotic agents” (Bayer Aktiengesellschaft, priority 1984, dated 1990).
In brackets after ≈: the same amount, converted by molar mass.

Assays:
[1] = test system: Aspergillus fumigatus; experiment: In vitro antimycotic activity, serial dilution test (MIC); type: cell-based; conditions: 28° to 37° C., 96 hours
Protocol: (§1) The in vitro tests were carried out in a serial dilution test using inocula of organisms with an average of 5×10^3 to 10^4 organisms/ml of substrate. The following nutrient medium were used
(§2) (a) for dermatophytes and mold fungi: Sabourand's milieu d'epreuve
(§3) The incubation temperature was 28° to 37° C., and the incubation time was 24 to 96 hours for yeasts and 96 hours for dermatophytes and mold fungi.

[2] = test system: Trichophyton mentagr.; experiment: as above; type: cell-based, Trichophyton mentagrophytes; conditions: 28° to 37° C., 96 hours
Protocol: as §1, §2, §3

[3] = test system: Torulopsis glabrata; experiment: as above; type: cell-based; conditions: Nakaseomyces glabratus, 28° to 37° C., 24 to 96 hours
Protocol: (§4) The in vitro tests were carried out in a serial dilution test using inocula of organisms with an average of 5×10^3 to 10^4 organisms/ml of substrate. The following nutrient medium were used (b) for yeasts: meat extract/glucose broth. The incubation temperature was 28° to 37° C., and the incubation time was 24 to 96 hours for yeasts and 96 hours for dermatophytes and mold fungi.

[4] = test system: Candida albicans; experiment: as above; type: cell-based; conditions: 28° to 37° C., 24 to 96 hours
Protocol: as §4

[5] = test system: Microsporum canis; experiment: as above; type: cell-based; conditions: 28° to 37° C., 96 hours
Protocol: as §1, §2, §3

[6] = test system: dermatophytes, mold fungi and yeasts; experiment: In vitro antimycotic activity, overall comparison with known compounds; type: cell-based; conditions: in vitro serial dilution test
Protocol: as §4, with “used (a) for dermatophytes and mold fungi: Sabourand's milieu d'epreuve” for “used”

[7] = test system: candida cells; experiment: In vivo antimycotic activity (oral) on candidosis of the mouse; parameters: species or system mouse (SPF-CF1) infected with candida; conditions: 10-100 mg/kg; for Action (class of survival on day 6 after infection): 1 hour before and 7 hours after infection; for surviving on day 6 after infection: good or very good actions, untreated controls about 5%
Protocol: Type SPF-CF1 mice were infected intravenously with 1-2×10^6 logarithmically growing candida cells which are suspended in physiological saline solution. The animals are each treated orally with 10-100 mg/kg of body weight of the products 1 hour before and 7 hours after the infection. Untreated animals died on days 3 to 6 after the infection. The survival rate on day 6 after the infection was about 5% for untreated control animals.

| MIC [1] | MIC [2] | MIC [3] | MIC [4] | MIC [5] | SMILES | antimycotic action compared with compounds (A), (B) and (C) [6] | Action (class of survival on day 6 after infection) [7] | surviving on day 6 after infection [7] |
| --- | --- | --- | --- | --- | --- | --- | --- | --- |
| > 64 µg/mL | 32 µg/mL (≈ 105 µM) | > 64 µg/mL | – | – | OC(Cn1cncn1)(Cn1cncn1)c1cccc(Cl)c1 [(A), reference compound] | – | – | – |
| > 64 µg/mL | 16 µg/mL (≈ 52.5 µM) | 64 µg/mL (≈ 210 µM) | 2 µg/mL (≈ 6.56 µM) | – | OC(Cn1cncn1)(Cn1cncn1)c1ccc(Cl)cc1 [(B), reference compound] | – | – | – |
| > 64 µg/mL | 64 µg/mL (≈ 237 µM) | > 64 µg/mL | 64 µg/mL (≈ 237 µM) | – | OC(Cn1cncn1)(Cn1cncn1)c1ccccc1 [(C), reference compound] | – | – | – |
| 32 µg/mL (≈ 96.7 µM) | 2 µg/mL (≈ 6.05 µM) | > 64 µg/mL | 8 µg/mL (≈ 24.2 µM) | 32 µg/mL (≈ 96.7 µM) | OC(Cn1cncn1)(c1ccc(Cl)cc1)C1(n2cncn2)CC1 (stereo not shown) [Example I-1, 1-(4-chlorophenyl)-1-[1-(1,2,4-triazol-1-yl)cyclopropyl]-2-(1,2,4-triazol-1-yl)-1-ethanol] | better antimycotic action than compounds (A), (B) and (C) | +++++ (very good action = 90% surviving on day 6 after infection) | > 60% |
| – | – | – | – | – | OC(Cn1cncn1)(c1ccc(F)cc1)C1(n2cncn2)CC1 (stereo not shown) [Example I-2] | – | +++++ (very good action = 90% surviving on day 6 after infection) | > 60% |
| 8 µg/mL (≈ 21.5 µM) | < 1 µg/mL | 8 µg/mL (≈ 21.5 µM) | 2 µg/mL (≈ 5.37 µM) | 4 µg/mL (≈ 10.7 µM) | OC(Cn1cncn1)(c1ccc(-c2ccccc2)cc1)C1(n2cncn2)CC1 (stereo not shown) [Example I-3] | better antimycotic action than compounds (A), (B) and (C) | +++ (action = 60% surviving on day 6 after infection) | > 60% |
| – | – | – | – | – | Cc1ccc(C(O)(Cn2cncn2)C2(n3cncn3)CC2)cc1 (stereo not shown) [Example I-5] | – | ++++ (good action = 80% surviving on day 6 after infection) | > 60% |
| 32 µg/mL (≈ 108 µM) | 4 µg/mL (≈ 13.5 µM) | > 64 µg/mL | 8 µg/mL (≈ 27 µM) | 32 µg/mL (≈ 108 µM) | OC(Cn1cncn1)(c1ccccc1)C1(n2cncn2)CC1 (stereo not shown) [Example I-6] | better antimycotic action than compounds (A), (B) and (C) | +++++ (very good action = 90% surviving on day 6 after infection) | > 60% |
| 64 µg/mL (≈ 171 µM) | < 1 µg/mL | 32 µg/mL (≈ 85.3 µM) | 4 µg/mL (≈ 10.7 µM) | 32 µg/mL (≈ 85.3 µM) | OC(Cn1cncn1)(c1ccc(Br)cc1)C1(n2cncn2)CC1 (stereo not shown) [Example I-7] | better antimycotic action than compounds (A), (B) and (C) | ++++ (good action = 80% surviving on day 6 after infection) | > 60% |
| – | – | – | – | – | OC(Cn1cncn1)(c1ccc(Cl)cc1)C1(n2ccnc2)CC1 (stereo not shown) [Example I-10] | – | +++ (action = 60% surviving on day 6 after infection) | > 60% |
